In PubChem BioAssay AID1963427 (Molecular Pharmacology Branch, DTP, NCI, 2024):

Test system: 317291-083-R-J1-PDC complex spheroid growth
Experiment: Anticancer human tumor 317291-083-R-J1-PDC patient-derived soft tissue sarcoma cell line growth inhibition [Asc]
Conditions: for IC50: curve of first compound; for viability, T/C: stronger effect = lower value; active = viability on the fitted dose curve at most 10% of control; inactive = the rest
How it was run: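 Concentration series start at each agent's clinical Cmax, or at 10 microM when none is established, and drop in half-log steps; agents are applied alone or together to complex spheroids built with HUVEC and hMSC.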
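Note: compound exposure lasted seven days after spheroids formed for three days.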
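Throughout, for viability, T/C: 100% = DMSO vehicle control wells.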

O=C(c1ccc(F)c(F)c1Nc1ccc(I)cc1F)N1CC(O)([C@@H]2CCCCN2)C1 + CCN1C(C(=O)NC23CCC(C(=O)O)(CC2)CC3)C(c2cccc(Cl)c2F)C2(C(=O)Nc3cc(Cl)ccc32)C12CCCCC2
389 nM: IC50 (second compound 3 µM)
526 nM: IC50 (second compound 0.3 µM)
528 nM: IC50 (second compound 0.949 µM)
540 nM: IC50 (second compound 0.00949 µM)
448 nM: IC50 (second compound 0.03 µM)
549 nM: IC50 (second compound 0.0949 µM)
inactive: viability, T/C (second compound 0.00949 µM, first compound 0.00316 µM) 101% | viability, T/C (second compound 0.00949 µM, first compound 0.01 µM) 89% | viability, T/C (second compound 0.00949 µM, first compound 0.0316 µM) 106% | viability, T/C (second compound 0.00949 µM, first compound 0.1 µM) 101% | viability, T/C (second compound 0.00949 µM, first compound 0.316 µM) 71.9% | viability, T/C (second compound 0.00949 µM, first compound 1 µM) 24.8% | viability, T/C (second compound 0.03 µM, first compound 0.00316 µM) 91.2% | viability, T/C (second compound 0.03 µM, first compound 0.01 µM) 94.8% | viability, T/C (second compound 0.03 µM, first compound 0.0316 µM) 85% | viability, T/C (second compound 0.03 µM, first compound 0.1 µM) 117% | viability, T/C (second compound 0.03 µM, first compound 0.316 µM) 64.9% | viability, T/C (second compound 0.03 µM, first compound 1 µM) 15.8% | viability, T/C (second compound 0.0949 µM, first compound 0.00316 µM) 103% | viability, T/C (second compound 0.0949 µM, first compound 0.01 µM) 90.8% | viability, T/C (second compound 0.0949 µM, first compound 0.0316 µM) 98.2% | viability, T/C (second compound 0.0949 µM, first compound 0.1 µM) 113% | viability, T/C (second compound 0.0949 µM, first compound 0.316 µM) 69.8% | viability, T/C (second compound 0.0949 µM, first compound 1 µM) 28.4% | viability, T/C (second compound 0.3 µM, first compound 0.00316 µM) 124% | viability, T/C (second compound 0.3 µM, first compound 0.01 µM) 95.1% | viability, T/C (second compound 0.3 µM, first compound 0.0316 µM) 86.3% | viability, T/C (second compound 0.3 µM, first compound 0.1 µM) 107% | viability, T/C (second compound 0.3 µM, first compound 0.316 µM) 71.4% | viability, T/C (second compound 0.3 µM, first compound 1 µM) 23% | viability, T/C (second compound 0.949 µM, first compound 0.00316 µM) 105% | viability, T/C (second compound 0.949 µM, first compound 0.01 µM) 105% | viability, T/C (second compound 0.949 µM, first compound 0.0316 µM) 114% | viability, T/C (second compound 0.949 µM, first compound 0.1 µM) 104% | viability, T/C (second compound 0.949 µM, first compound 0.316 µM) 72.2% | viability, T/C (second compound 0.949 µM, first compound 1 µM) 22.4% | viability, T/C (second compound 3 µM, first compound 0.00316 µM) 105% | viability, T/C (second compound 3 µM, first compound 0.01 µM) 92.7% | viability, T/C (second compound 3 µM, first compound 0.0316 µM) 96.8% | viability, T/C (second compound 3 µM, first compound 0.1 µM) 90.2% | viability, T/C (second compound 3 µM, first compound 0.316 µM) 55.4% | viability, T/C (second compound 3 µM, first compound 1 µM) 24.8%

C=C(F)C(=O)N1CCN(c2nc(OCC3CCCN3C)nc3c2CCN(c2cccc4cccc(Cl)c24)C3)CC1CC#N (stereo unspecified) + CNC(C)C(=O)NC1CN(S(=O)(=O)c2cccc(S(=O)(=O)N3CCC4CCC(C(=O)NC(c5ccccc5)c5ccccc5)N4C(=O)C(NC(=O)C(C)NC)C3)c2)CCC2CCC(C(=O)NC(c3ccccc3)c3ccccc3)N2C1=O
active: viability, T/C (second compound 0.00316 µM, first compound 10 µM) 0.13% | viability, T/C (second compound 0.01 µM, first compound 3.16 µM) 9.6% | viability, T/C (second compound 0.01 µM, first compound 10 µM) 0.1% | viability, T/C (second compound 0.0316 µM, first compound 3.16 µM) 8.82% | viability, T/C (second compound 0.0316 µM, first compound 10 µM) 0.1% | viability, T/C (second compound 0.1 µM, first compound 10 µM) 0.1% | viability, T/C (second compound 0.316 µM, first compound 10 µM) 0.44% | viability, T/C (second compound 1 µM, first compound 10 µM) 0.2%
1030 nM: IC50 (second compound 0.01 µM)
948 nM: IC50 (second compound 0.00316 µM)
< 31.6 nM: IC50 (second compound 0.316 µM) | IC50 (second compound 1 µM)
71 nM: IC50 (second compound 0.1 µM)
inactive: viability, T/C (second compound 0.00316 µM, first compound 0.0316 µM) 90.9% | viability, T/C (second compound 0.00316 µM, first compound 0.1 µM) 69.3% | viability, T/C (second compound 0.00316 µM, first compound 0.316 µM) 67% | viability, T/C (second compound 0.00316 µM, first compound 1 µM) 54.3% | viability, T/C (second compound 0.00316 µM, first compound 3.16 µM) 25% | viability, T/C (second compound 0.01 µM, first compound 0.0316 µM) 66.7% | viability, T/C (second compound 0.01 µM, first compound 0.1 µM) 61.8% | viability, T/C (second compound 0.01 µM, first compound 0.316 µM) 68.5% | viability, T/C (second compound 0.01 µM, first compound 1 µM) 50.4% | viability, T/C (second compound 0.0316 µM, first compound 0.0316 µM) 62% | viability, T/C (second compound 0.0316 µM, first compound 0.1 µM) 54.2% | viability, T/C (second compound 0.0316 µM, first compound 0.316 µM) 46.8% | viability, T/C (second compound 0.0316 µM, first compound 1 µM) 46.6% | viability, T/C (second compound 0.1 µM, first compound 0.0316 µM) 59.1% | viability, T/C (second compound 0.1 µM, first compound 0.1 µM) 39.9% | viability, T/C (second compound 0.1 µM, first compound 0.316 µM) 38.5% | viability, T/C (second compound 0.1 µM, first compound 1 µM) 38.2% | viability, T/C (second compound 0.1 µM, first compound 3.16 µM) 11.7% | viability, T/C (second compound 0.316 µM, first compound 0.0316 µM) 38.1% | viability, T/C (second compound 0.316 µM, first compound 0.1 µM) 29.4% | viability, T/C (second compound 0.316 µM, first compound 0.316 µM) 35% | viability, T/C (second compound 0.316 µM, first compound 1 µM) 29.3% | viability, T/C (second compound 0.316 µM, first compound 3.16 µM) 13.1% | viability, T/C (second compound 1 µM, first compound 0.0316 µM) 37.9% | viability, T/C (second compound 1 µM, first compound 0.1 µM) 32.2% | viability, T/C (second compound 1 µM, first compound 0.316 µM) 32% | viability, T/C (second compound 1 µM, first compound 1 µM) 19.4% | viability, T/C (second compound 1 µM, first compound 3.16 µM) 9.16%
559 nM: IC50 (second compound 0.0316 µM)

NC(=O)C(=Cn1cnc(-c2cc(C(F)(F)F)cc(C(F)(F)F)c2)n1)c1cncnc1 + CCN1C(C(=O)NC23CCC(C(=O)O)(CC2)CC3)C(c2cccc(Cl)c2F)C2(C(=O)Nc3cc(Cl)ccc32)C12CCCCC2
active: viability, T/C (second compound 0.00949 µM, first compound 0.3 µM) 2.56% | viability, T/C (second compound 0.03 µM, first compound 0.3 µM) 2.23% | viability, T/C (second compound 0.0949 µM, first compound 0.3 µM) 2.94% | viability, T/C (second compound 0.3 µM, first compound 0.3 µM) 2.81% | viability, T/C (second compound 0.949 µM, first compound 0.3 µM) 2.96% | viability, T/C (second compound 3 µM, first compound 0.3 µM) 2.15%
21.5 nM: IC50 (second compound 0.03 µM)
18.2 nM: IC50 (second compound 3 µM)
23.8 nM: IC50 (second compound 0.0949 µM)
34.2 nM: IC50 (second compound 0.00949 µM)
24.3 nM: IC50 (second compound 0.3 µM)
23.6 nM: IC50 (second compound 0.949 µM)
inactive: viability, T/C (second compound 0.00949 µM, first compound 0.000949 µM) 97.9% | viability, T/C (second compound 0.00949 µM, first compound 0.003 µM) 83.4% | viability, T/C (second compound 0.00949 µM, first compound 0.00949 µM) 79.2% | viability, T/C (second compound 0.00949 µM, first compound 0.03 µM) 57.7% | viability, T/C (second compound 0.00949 µM, first compound 0.0949 µM) 10% | viability, T/C (second compound 0.03 µM, first compound 0.000949 µM) 118% | viability, T/C (second compound 0.03 µM, first compound 0.003 µM) 87.6% | viability, T/C (second compound 0.03 µM, first compound 0.00949 µM) 84.8% | viability, T/C (second compound 0.03 µM, first compound 0.03 µM) 38.2% | viability, T/C (second compound 0.03 µM, first compound 0.0949 µM) 5.81% | viability, T/C (second compound 0.0949 µM, first compound 0.000949 µM) 94.6% | viability, T/C (second compound 0.0949 µM, first compound 0.003 µM) 109% | viability, T/C (second compound 0.0949 µM, first compound 0.00949 µM) 72.4% | viability, T/C (second compound 0.0949 µM, first compound 0.03 µM) 46.4% | viability, T/C (second compound 0.0949 µM, first compound 0.0949 µM) 10.3% | viability, T/C (second compound 0.3 µM, first compound 0.000949 µM) 95.1% | viability, T/C (second compound 0.3 µM, first compound 0.003 µM) 106% | viability, T/C (second compound 0.3 µM, first compound 0.00949 µM) 74.6% | viability, T/C (second compound 0.3 µM, first compound 0.03 µM) 47.4% | viability, T/C (second compound 0.3 µM, first compound 0.0949 µM) 7.13% | viability, T/C (second compound 0.949 µM, first compound 0.000949 µM) 110% | viability, T/C (second compound 0.949 µM, first compound 0.003 µM) 90.3% | viability, T/C (second compound 0.949 µM, first compound 0.00949 µM) 69.6% | viability, T/C (second compound 0.949 µM, first compound 0.03 µM) 55.6% | viability, T/C (second compound 0.949 µM, first compound 0.0949 µM) 4.34% | viability, T/C (second compound 3 µM, first compound 0.000949 µM) 100% | viability, T/C (second compound 3 µM, first compound 0.003 µM) 87.2% | viability, T/C (second compound 3 µM, first compound 0.00949 µM) 76.8% | viability, T/C (second compound 3 µM, first compound 0.03 µM) 27.7% | viability, T/C (second compound 3 µM, first compound 0.0949 µM) 21.7%
